Data from US9034918B2, “Composition including at least one trans-cinnamaldehyde and the use thereof in the treatment of bacterial infections, specifically in the treatment of nosocomial infections” (SEPTEOS, priority 2009, dated 2015).

Tests used:
Assay type in all cases: cell-based
E. coli strain 8157 = test: Antibiogram by diffusion technique (CA-SFM 2008); design: D: unit not given here
Description: (§1) Three clinical categories were selected for interpretation of the in vitro sensitivity tests: sensitive (S), resistant (R) and intermediate (I). • The strains categorized S are those for which the probability of therapeutic success is high in the case of treatment by systemic route with the dosing schedule recommended in the summary of product characteristics (SPC) prepared by the French Health Products Safety Agency (AFSSAPS). • The strains categorized R are those for which there is a high probability of therapeutic failure regardless of treatment type and antibiotic dose. • The strains categorized I are those for which therapeutic success cannot be predicted. These strains form a heterogeneous group for which the results obtained in vitro are not predictive of therapeutic success. […] The intermediate category is also a buffer zone which takes into account technical and biological uncertainties.
(§2) The sensitivity of strains to antibiotics was determined by a diffusion technique according to the 2008 recommendations by the Antibiogram Committee of the French Microbiology Society (CA-SFM).
(§3) In terms of critical concentrations and diameters, strains are categorized as follows: • sensitive (S): strains for which the MIC of the antibiotic tested is less than or equal to the lower critical concentration c, which is equivalent to a diameter greater than or equal to the critical diameter D; • resistant (R): strains for which the MIC of the antibiotic tested are greater than the upper critical concentration C, corresponding to a diameter less than the critical diameter d; • intermediate sensitivity (I): strains for which the MIC of the antibiotic tested and the corresponding diameter are between the two critical concentrations and the two critical diameters.
(§4) The tests were carried out on Mueller-Hinton agar. An inoculum adjusted to 0.5 on the McFarland scale is then diluted to 1/100. Petri dishes are inoculated by swabbing. The dishes are read after 24 hours of incubation at 37° C.
(§5) The raw results are then interpreted according to the interpretative reading rules of the CA-SFM.

E. coli strain 8155 = test: Antibiogram by diffusion technique (CA-SFM 2008); design: D: unit not given here
Description: as §1, §2, §3, §4, §5

[1] = tested on: Pseudomonas aeruginosa strain 8132; test: Antibiogram by diffusion technique (CA-SFM 2008); design: D: unit not given here
Description: as §1, §2, §3, §4, §5

[2] = tested on: Pseudomonas aeruginosa strain 8128; test: Antibiogram by diffusion technique (CA-SFM 2008); design: D: unit not given here
Description: as §1, §2, §3, §4, §5

[3] = tested on: Pseudomonas aeruginosa strain 8129; test: Antibiogram by diffusion technique (CA-SFM 2008); design: D: unit not given here
Description: as §1, §2, §3, §4, §5

E. coli strain 8154 = test: Antibiogram by diffusion technique (CA-SFM 2008); design: D: unit not given here
Description: as §1, §2, §3, §4, §5

[4] = tested on: golden staph (S. aureus) strain 8147; test: Antibiogram by diffusion technique (CA-SFM 2008); design: D: unit not given here
Description: as §1, §2, §3, §4, §5

E. coli strain 8156 = test: Antibiogram by diffusion technique (CA-SFM 2008); design: D: unit not given here
Description: as §1, §2, §3, §4, §5

[5] = tested on: golden staph (S. aureus) strain 8240; test: Antibiogram by diffusion technique (CA-SFM 2008); design: D: unit not given here
Description: as §1, §2, §3, §4, §5

[6] = tested on: Pseudomonas aeruginosa strain 8134; test: Antibiogram by diffusion technique (CA-SFM 2008); design: D: unit not given here
Description: as §1, §2, §3, §4, §5

[7] = tested on: golden staph (S. aureus) strain 8239; test: Antibiogram by diffusion technique (CA-SFM 2008); design: D: unit not given here
Description: as §1, §2, §3, §4, §5

[8] = tested on: strain 9010, Acinetobacter baumannii, with VEB-1 ESBL; test: Antibiogram by diffusion technique (CA-SFM 2008)
Description: as §1, §2, §3, §4, §5

[9] = tested on: Enterococcus faecium (9001); test: Antibiogram by diffusion technique (CA-SFM 2008); conditions: strain 9001
Description: as §1, §2, §3, §4, §5

[10] = tested on: strain 9007, Pseudomonas aeruginosa, with VIM-2 carbapenemase; test: Antibiogram by diffusion technique (CA-SFM 2008)
Description: as §1, §2, §3, §4, §5

Enterococcus strain 8152 = test: Antibiogram by diffusion technique (CA-SFM 2008); design: Diameter: unit not given here
Description: as §1, §2, §3, §4, §5

Enterococcus strain 8153 = test: Antibiogram by diffusion technique (CA-SFM 2008); design: Diameter: unit not given here
Description: as §1, §2, §3, §4, §5

E. coli ATCC 25922 = test: Antibiogram by diffusion technique (CA-SFM 2008); design: Diameter (D): unit not given here
Description: Three clinical categories were selected for interpretation of the in vitro sensitivity tests: sensitive (S), resistant (R) and intermediate (I). • The strains categorized S are those for which the probability of therapeutic success is high in the case of treatment by systemic route with the dosing schedule recommended in the summary of product characteristics (SPC) prepared by the French Health Products Safety Agency ([…]). • The strains categorized R are those for which there is a high probability of therapeutic failure regardless of treatment type and antibiotic dose. • The strains categorized I are those for which therapeutic success cannot be predicted. These strains form a heterogeneous group for which the results obtained in vitro are not predictive of therapeutic success. […] The intermediate category is also a buffer zone which takes into account technical and biological uncertainties. The sensitivity of strains to antibiotics was determined by a diffusion technique according to the 2008 recommendations by the Antibiogram Committee of the French Microbiology Society (CA-SFM). In terms of critical concentrations and diameters, strains are categorized as follows: • sensitive (S): strains for which the MIC of the antibiotic tested is less than or equal to the lower critical concentration c, which is equivalent to a diameter greater than or equal to the critical diameter D; • resistant (R): strains for which the MIC of the antibiotic tested are greater than the upper critical concentration C, corresponding to a diameter less than the critical diameter d; • intermediate sensitivity (I): strains for which the MIC of the antibiotic tested and the corresponding diameter are between the two critical concentrations and the two critical diameters. The tests were carried out on Mueller-Hinton agar. An inoculum adjusted to 0.5 on the McFarland scale is then diluted to 1/100. Petri dishes are inoculated by swabbing. The dishes are read after 24 hours of incubation at 37° C. The raw results are then interpreted according to the interpretative reading rules of the CA-SFM. Two examples: all strains of methicillin-resistant Staphylococcus are resistant to all beta-lactams, and the same is true for gentamicin-resistant strains; golden staph is necessarily resistant to kanamycin (and amikacin) and tobramycin. The quality of the diffusion method is controlled using E. coli strain ATCC 25922.

[11] = tested on: Gram-positive bacteria and Gram-negative bacteria, resistant strains; test: Agar test, summary over the strains tested; conditions: also on resistant strains, low volume concentrations
Description: For bacteria to have good accessibility (aqueous phase multiplication only) to essential oils, it is essential to find a method of aqueous phase solubilization. This step is neglected in much work that directly uses the lipid phase, which is inaccessible to bacteria (oil-soaked disc placed on agar). Moreover, for the topical use of oils, this solubilization phase is also essential, and with the goal of practical application, surfactants and solubilization adjuvants are also selected for their satisfactory cutaneous tolerance.
The final preparation includes: 1.0 ml of essential oil, 3.4 ml of Tween 80 and 5.6 ml of 10% molar propylene glycol aqueous solution.
The day before the test, inoculate the strains in BH medium and on tilted MHA. Prepare test tubes containing 19 ml and 18 ml of MHA. Prepare test tubes containing 5 ml of 10% molar propylene glycol for the various dilutions.
On the day of the test, solubilize the trans-cinnamaldehyde as follows: • 1 ml of trans-cinnamaldehyde • 3.4 ml of Tween 80 • 5.6 ml of 10% molar propylene glycol.
When the trans-cinnamaldehyde is solubilized, prepare successive 1/2 dilutions in 10% molar propylene glycol.
Add 1 ml of suitable dilutions in the test tubes containing 19 ml of medium, homogenize well and pour into Petri dishes. […]

[12] = tested on: Enterobacter aerogenes (9004); test: Antibiogram by diffusion technique (CA-SFM 2008); conditions: strain 9004
Description: as §1, §2, §3, §4, §5

E. coli strain 9003 = test: Antibiogram by diffusion technique (CA-SFM 2008)
Description: as §1, §2, §3, §4, §5

Row | Compound | Cat. (E. coli strain 8157) | D (E. coli strain 8157) | Cat. (E. coli strain 8155) | D (E. coli strain 8155) | Cat. [1] | D [1] | Cat. [2] | D [2] | Cat. [3] | D [3] | Cat. (E. coli strain 8154) | D (E. coli strain 8154) | Cat. [4] | D [4] | Cat. (E. coli strain 8156) | D (E. coli strain 8156) | Cat. [5] | D [5] | Cat. [6] | D [6] | other results
1 | C[C@H]1COc2c(N3CCN(C)CC3)c(F)cc3c(=O)c(C(=O)O)cn1c23 [Levofloxacin] | R | 11 | S | 31 | R | 0 | S | 23 | S | 26 | S | 36 | R | 10 | S | 31 | R | 0 | R | 0 | Cat. [7]: R; D [7]: 10; Category [8]: R; Category [9]: R; Category [10]: S; Category (Enterococcus strain 8152): S; Diameter (Enterococcus strain 8152): 29; Category (Enterococcus strain 8153): S; Diameter (Enterococcus strain 8153): 26; Category (Cat.) (E. coli ATCC 25922): S; Diameter (D) (E. coli ATCC 25922): 31
2 | O=C/C=C/c1ccccc1 [trans-cinnamaldehyde] | – | – | – | – | – | – | – | – | – | – | – | – | – | – | – | – | – | – | – | – | Spectrum of antibacterial activity [11]: antibacterial activity on both Gram-positive bacteria and Gram-negative bacteria
3 | Gentamicin | S | 25 | S | 21 | R | 16 | S | 27 | S | 21 | S | 21 | S | 26 | S | 25 | S | 27 | R | 0 | Cat. [7]: S; D [7]: 28; Category [8]: R; Category [12]: S; Category [9]: S; Category [10]: S; Category (E. coli strain 9003): S; Category (Enterococcus strain 8152): R; Diameter (Enterococcus strain 8152): 15; Category (Enterococcus strain 8153): R; Diameter (Enterococcus strain 8153): 14; Category (Cat.) (E. coli ATCC 25922): S; Diameter (D) (E. coli ATCC 25922): 25
